In patent publication US20070142386A1, “New 2-substituted, 4-amino-thiazolo[4,5-d] pyrimidines, useful as chemokine receptor antagonists, esp. cx3cr1” (AstraZeneca, priority 2003, published 2007):
pKi: −log10 of the molar value. Values after ≈ are worked out from the molar mass of the structure shown.

test system: not listed separately; assay: Solubility assay (0.1M phosphate buffer, pH 7.4, 24 hours); format: physicochemical; conditions: 100 μM from DMSO stock in 0.1M phosphate buffer, pH 7.4, room temperature, upper limit 100 μM, LOQ 0.1 μM
Procedure: 100 μM Solutions in duplicate, prepared by dilution from a 10 mM DMSO stock solution of the test compound, were incubated in 0.1M phosphate buffer, pH 7.4, in a 96-well plate (PP plate, 350 μl U-shaped wells, COSTAR) on a plate bed shaker (IKA®-Schuttler MTS-4, IKA Labortechnik) at 300 rpm and room temperature (20-22° C.) for 24 hours.
The solutions were transferred to a MultiScreen™-R4 96-well filtration plate (LCR membrane, 0.4 μm hydrophilic PTFE, non-sterile glass-filled PP plate, 350 μl wells, Millipore) and filtered under vacuum to a 96-well collection plate (PP plate, 350 μl U-shaped wells, COSTAR), called the analyte plate, using Millipore Vacuum Manifold equipment. The analyte plate was covered by heat-sealing with an aluminium foil coated with a PP seal layer (AB-0813, pierceable sealing foil strong, ABgene).
LC-UV-MS analysis was performed using a generic LC method.
Single point quantification was performed against two 100 μM standards of the test compound dissolved in DMSO at the wavelength showing maximum UV absorbance as extracted from the DAD-trace (210-400 nm). The upper limit of the screen method is 100 μM with a LOQ of 0.1 μM.

Molecule `CC(C)C[C@H](CO)N(C)c1nc([S+]([O-])CCc2ccccc2Br)nc2nc(N)sc12` (mixture of isomers) [Example 13, (R)-2-[(2-Amino-5-{[2-(2-bromophenyl)ethyl]-(RS,SS)-sulfinyl}[1,3]thiazolo[4,5-d]pyrimidin-7-yl)(methyl)amino]-4-methylpentan-1-ol] has a solubility at 24 h of 33.8 µM (≈ 17.3 µg/mL).

same assay, conditions: 21 °C, aqueous buffer, kinetic from dmso stock, 100 μM from DMSO stock in 0.1M phosphate buffer, pH 7.4, room temperature, upper limit 100 μM, LOQ 0.1 μM

Compared with `CC(C)C[C@H](CO)Nc1nc([S+]([O-])Cc2cccc(F)c2F)nc2[nH]c(=O)sc12` (mixture of isomers) [Example 45, 5-[(2,3-Difluorobenzyl)-(RS,SS)-sulfinyl]-7-{[(1R)-1-(hydroxymethyl)-3-methylbutyl]amino}[1,3]thiazolo[4,5-d]pyrimidin-2(3H)-one], `CC(C)C[C@H](CO)Nc1nc(SCc2cccc(F)c2F)nc2[nH]c(=O)sc12` [drawing 20 X = S, 5-[(2,3-Difluorobenzyl)thio]-7-{[(1R)-1-(hydroxymethyl)-3-methylbutyl]amino}[1,3]thiazolo[4,5-d]pyrimidin-2(3H)-one, reference compound] is lower in solubility at 24 h: greater than 100 µM for the first, 2.1 µM (≈ 0.896 µg/mL) for the second.

`COc1cccc(COc2nc(N[C@@H](CO)CC(C)C)c3sc(N)nc3n2)c1` [Example 2, (2R)-2-({2-Amino-5-[(3-methoxybenzyl)oxy][1,3]thiazolo[4,5-d]pyrimidin-7-yl}amino)-4-methylpentan-1-ol] and `COc1cccc(COc2nc(N[C@@H](CO)CC(C)C)c3sc(=O)[nH]c3n2)c1` [Example 26, 7-{[(1R)-1-(Hydroxymethyl)-3-methylbutyl]amino}-5-[(3-methoxybenzyl)oxy][1,3]thiazolo[4,5-d]pyrimidin-2(3H)-one] are within 1.5-fold of each other in solubility at 24 h: 72.9 µM (≈ 29.4 µg/mL) for the first, 78.5 µM (≈ 31.8 µg/mL) for the second.

First: CC(C)C[C@H](CO)Nc1nc(OCCc2ccccc2)nc2nc(N)sc12 [Example 3, (2R)-2-{[2-Amino-5-(2-phenylethoxy)[1,3]thiazolo[4,5-d]pyrimidin-7-yl]amino}-4-methylpentan-1-ol]
Second: CC(C)C[C@H](CO)Nc1nc(OCc2ccccc2)[nH]c2nc(=O)sc1-2 [Example 25, 5-(Benzyloxy)-7-{[(1R)-1-(hydroxymethyl)-3-methylbutyl]amino}[1,3]thiazolo[4,5-d]pyrimidin-2(3H)-one]
The solubility at 24 h of the first is 2.2-fold higher: 63.6 µM (≈ 24.6 µg/mL) for the first, 29 µM (≈ 10.9 µg/mL) for the second.

Compared with `CC(C)CC(CO)Nc1nc([S+]([O-])Cc2cccc(F)c2F)nc2[nH]c(=O)cnc12` [Example 24, 2-[(2,3-Difluorobenzyl)-(RS,SS)-sulfinyl]-4-(1R)-1-(hydroxymethyl)-3-methylbutyl]amino}pteridin-7(8H)-one], `CC(C)C[C@H](CO)Nc1nc(SCc2cccc(F)c2F)nc2[nH]c(=O)cnc12` [drawing 17 X = S, 2-[(2,3-Difluorobenzyl)thio]-4-{[(1R)-1-(hydroxymethyl)-3-methylbutyl]amino}pteridin-7(8H)-one, reference compound] is 34-fold lower in solubility at 24 h: 44 µM (≈ 19.2 µg/mL) for the first, 1.3 µM (≈ 0.548 µg/mL) for the second.

Going from `CC(C)C(CO)Nc1nc([S+]([O-])Cc2ccccc2)nc2[nH]c(=O)sc12` [Example 49, 5-[Benzyl-(RSSS)-sulfinyl]-7-{[(1R)-1-(hydroxymethyl)-2-methylpropyl]amino}[1,3]thiazolo[4,5-d]pyrimidin-2(3H)-one] to `CC(C)[C@H](CO)Nc1nc(SCc2ccccc2)nc2[nH]c(=O)sc12` [drawing 21 X = S, 5-(Benzylthio)-7-{[(1R)-1-(hydroxymethyl)-2-methylpropyl]amino}[1,3]thiazolo[4,5-d]pyrimidin-2(3H)-one, reference compound], the solubility at 24 h falls from greater than 100 µM to 8.5 µM (≈ 3.2 µg/mL).

Molecule `CC(C)C[C@H](CO)Nc1nc(SCc2ccccc2)nc2[nH]c(=O)sc12` [drawing 18 X = S, 5-(Benzylthio)-7-{[(1R)-1-(hydroxymethyl)-3-methylbutyl]amino}[1,3]thiazolo[4,5-d]pyrimidin-2(3H)-one, reference compound] has a solubility at 24 h of 1.3 µM (≈ 0.508 µg/mL).

molecular target: T1, human fractalkine receptor (hCX3CR1) (Homo sapiens, UniProt P49238); assay: Ligand binding assay (competition binding with [125I]-fractalkine on cell membranes); conditions: not given
T1 construct: expressed in transfected cells; host or cells: HEKS 293 (human embryonic kidney suspension) cells stably expressing the chimeric G-protein Gαqi5; Membranes were used in the assay
T1 sequence (P49238 1-355): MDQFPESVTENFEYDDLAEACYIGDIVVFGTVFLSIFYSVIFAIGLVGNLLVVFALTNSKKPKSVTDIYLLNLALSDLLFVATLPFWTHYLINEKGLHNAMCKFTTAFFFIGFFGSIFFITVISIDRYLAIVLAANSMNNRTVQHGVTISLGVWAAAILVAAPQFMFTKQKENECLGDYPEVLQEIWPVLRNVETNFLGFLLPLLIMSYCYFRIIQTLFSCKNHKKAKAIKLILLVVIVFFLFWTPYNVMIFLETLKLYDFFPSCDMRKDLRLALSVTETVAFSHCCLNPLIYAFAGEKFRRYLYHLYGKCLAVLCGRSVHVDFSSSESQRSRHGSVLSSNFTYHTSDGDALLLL

Work on `CC(C)C[C@H](CO)Nc1nc(OCc2ccccc2)[nH]c2nc(=O)sc1-2` [Example 25, 5-(Benzyloxy)-7-{[(1R)-1-(hydroxymethyl)-3-methylbutyl]amino}[1,3]thiazolo[4,5-d]pyrimidin-2(3H)-one] yielded a pKi of 7.35.

same assay, conditions: 10 pM [125I]-fractalkine, membranes of HEKS 293 cells expressing hCX3CR1, 25° C., 24 h; read-out: Ki

In the case of `CC(C)C[C@H](CO)Nc1nc([S+]([O-])Cc2cccc(F)c2F)nc2[nH]c(=O)sc12` (mixture of isomers) [Example 45, 5-[(2,3-Difluorobenzyl)-(RS,SS)-sulfinyl]-7-{[(1R)-1-(hydroxymethyl)-3-methylbutyl]amino}[1,3]thiazolo[4,5-d]pyrimidin-2(3H)-one], the pKi was 7.42.
